Measured values taken from PubChem BioAssay AID179 (DTP/NCI, 2004).
Several values for one entry are separate records, joined by “and”; a condition that tells them apart may be missing. Equal values may be shown once. Activity calls are given as the source filed them.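 The calls were made as follows: active = compounds giving half or more protection of infected cells from virus-caused growth loss, again on retest; inactive = the rest.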 Where a SMILES comes first, the peptide text is derived from it. The star is where a group is joined. Cbz = O=C(OCc1ccccc1)*

Test system: CEM cells HIV-1 protection, formazan growth assay
Assay: NCI AIDS Antiviral Assay
Settings: for IC50: measured here: growth of uninfected CEM cells
How it was run: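 Screen of anti-HIV-1 activity in human CEM cells using a formazan-based growth measurement at five drug concentrations. Hits with 50% or greater protection were repeated, and confirmation required reproducible complete protection.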

SMILES	EC50 [µM]	IC50	outcome
CN(C)C12C=CC=CC3=C(c4ccccc4)C(c4ccccc4)=C(c4ccccc4)C31c1ccccc1C2 (configuration not stated)	> 200	> 200 µM	–
CC(=O)c1c(C)n(C)c2c1nnc1ccccc12	> 41.7	30.2 µM	–
CCCCCCC1OC(C(=O)OCCCC)C(C(=O)OCCCC)O1 (configuration not stated)	> 200	> 200 µM	–
CNCCCC1c2ccccc2C=Cc2ccccc21	> 200	37.2 µM	–
CC1=CCC(O)C=CC(C)C(O)C(C)C=C(C)C(=O)c2c(O)c(C)cc3c2C(=O)C(N)=C(NC(=O)/C=C\C=C/C=CC(C)C(O)CC1=O)C3=O (configuration not stated)	> 182	97.7 µM	–
CSc1c(C#N)c(=C(C#N)C#N)nc(C)/c1=C(\C)O	> 100	> 100 µM	–
S=C1CC(c2ccccc2)Sc2ccc(Cl)cc2N1 (configuration not stated)	> 200	34.7 µM	–
CCOP(=O)(OCC)/C(C#N)=C/c1ccc(C(F)(F)F)cc1	> 107	57.5 µM	–
Cc1nc2cncnc2n(CCN2CCOCC2)c1=O	> 200	46.8 µM	–
CSc1nc(C#N)c(/N=C\N(C)C)n1C	> 200	> 200 µM	–
O=C(C(=C(I)I)c1ccccc1)c1ccccc1	> 200	19.5 µM	–
O=C(Nc1ccc(Br)cc1)C(=O)C(C(=O)c1ccccc1F)C1OC(=O)c2ccccc21 (configuration not stated)	> 263	35.5 µM	–
CC(C)CCC[C@@H](C)C1CCC2[C@@H]3CC=C4C[C@@H](OP(=O)(O)OP(=O)(O)O)CC[C@]4(C)C3CC[C@@]21C (some centres not stated)	> 6.17	> 6.17 µM	–
CC(=O)Nc1cc2cc(NC=C(C#N)C#N)ccc2oc1=O	> 37.2	> 37.2 µM	–
Cc1cc(=O)n(-c2ccccc2C)c(C)n1	> 1000	> 1000 µM	–
CSC1N=CNc2c1sc(=S)n2-c1ccccc1 (configuration not stated)	> 33.9	> 33.9 µM	–
Cc1nnc2n(c1=O)CCCN2C	> 200	> 200 µM	–
Cc1nc2c(N)n[nH]c(=O)n2n1	> 200	> 200 µM	–
O=C1CCC2(CCCCC2)N1	> 200	> 200 µM	–
O=C(c1ccco1)N(C(=S)N1CCN(c2ccccc2)CC1)C1CCCCC1	> 18.2	12.6 µM	–
O=C1C2C3SC(c4cc5ccccc5cc43)C2C(=O)N1c1ccccc1 (configuration not stated)	–	–	inactive
Nc1[nH]c(=O)ncc1F	> 200	> 200 µM	–
Clc1ccccc1/C=C1\c2ccccc2-c2nc3ccccc3nc21	> 200	> 200 µM	–
COc1cc(C=C2C(=O)NC(=O)NC2=O)cc(OC)c1OC	> 427	257 µM	–

SMILES	EC50 [µM]	IC50	outcome
O=C1c2sccc2-c2cccc3cccc1c23	> 63.1	30.9 µM	–
Cc1c(C#N)c(N)n(C2OCC(O)C(O)C2O)c(=S)c1C#N (configuration not stated)	–	–	inactive
O=C1CC(=O)NC(=NNS(=O)(=O)c2ccccc2)N1	> 200	> 200 µM	–
CN1CN(c2ccccc2)C2(CCN(CCCCCCF)CC2)C1=O	> 200	107 µM	–
COc1cc2c(cc1OC)C(OC)N(C)c1c-2ccc2cc3c(cc12)OCO3 (configuration not stated)	> 20	0.309 µM	–
O=C1CSC(=S)N1N1C(=O)CSC1=S	> 200	> 200 µM	–
O=c1ccn(C2OC(CO)C(O)C2[Se]c2ccccc2)c(=O)[nH]1 (configuration not stated)	> 200	> 200 µM	–
S=c1[nH]nc2scnn12	> 200	> 200 µM	–
O=C1NC(=O)/C(=C\c2cccc(O)c2)N1	> 200	> 200 µM	–
COC(=O)C1=CCC2c3[nH]c4ccccc4c3CCN2C1 (configuration not stated)	> 91.2	> 91.2 µM	–
CC1C2CC(CC2(C)O)C1(C)C (configuration not stated)	> 562	> 562 µM	–
O=C1c2cccc3cccc(c23)C(=O)N1CCCN(CCO)CCO	> 200	12.3 µM	–
CC(C)=CC(=O)N1CC(C)Cn2c(=S)[nH]c3cccc1c32 (configuration not stated)	> 200	> 200 µM	–
COc1cc(OC)c2nc3occc3c(OC)c2c1	> 363	58.9 µM	–
CC(=O)Nc1c(C)cc2c(nc3n2CCC3O)c1[N+](=O)[O-] (configuration not stated)	> 200	> 200 µM	–
c1ccc2c(c1)Cc1cn3ncnc3nc1-2	> 200	> 200 µM	–
CC[C@@]1(O)C(=O)OCc2c1cc1n(c2=O)Cc2c-1nc1ccccc1c2Cl	> 10	0.0331 µM	–
COc1ccc(NC(=O)/C(=C/N2C(=O)/C(=C\C(C)=C\c3ccccc3)SC2=S)C(C)=O)cc1	> 200	13.5 µM	–
O=c1[nH]nc(Nc2ccc(Cl)cc2)c2nnn(C3CCCCC3)c12	> 200	> 200 µM	–
Cc1cc(C)n(C(=C(C(Cl)=C(Cl)Cl)[N+](=O)[O-])n2nc(C)cc2C)n1	> 200	4.37 µM	–
Cc1cc(N(CCC#N)CCC#N)ccc1/C=C1N=C(/C=C\c2ccccc2)N(NC(=O)CC(=O)Nc2ccccc2Cl)C\1=O	–	–	inactive
C=CCOCn1cc(F)c(=O)[nH]c1=O	> 200	> 200 µM	–
O=C1C(=O)c2ccccc2C(O)=C1Sc1ccc(Cl)cc1	> 200	17.4 µM	–
O=C(Nc1ccc2cc(S(=O)(=O)O)ccc2c1)c1ccc(N=Nc2cc(S(=O)(=O)O)c3ccccc3c2O)cc1	> 50.1	> 50.1 µM	–

SMILES	EC50 [µM]	IC50	outcome
O=C1C=C[C@@]23CC1C(O)C[C@H]2C=Cc1ccccc13 (some centres not stated)	> 102	> 102 µM	–
C[C@]12CC[C@@H]3c4cc(Br)c(O)c(Br)c4CC[C@H]3[C@@H]1CC(Br)C2=O (some centres not stated)	> 200	3.47 µM	–
O=C(O)c1ccccc1/C=N\NC1=NCCCCN1	> 200	> 200 µM	–
O=P1(Cc2ccccc2)c2ccccc2-c2ccccc21	> 200	3.63 µM	–
CCOC(=O)CCC(NC(=O)C(Cc1ccccc1)NC(=O)OCc1ccccc1)C(=O)OCC (stereo not drawn) (Cbz-Phe-Glu(OEt)-OEt; configuration not given here)	> 200	9.55 µM	–
C/C(CC1SCCCS1)=C(/C)CC1SCCCS1	> 200	> 200 µM	–
CCOc1ccc(C(=O)Nc2ccc(C3=NCCN3)cc2)cc1C(=O)Nc1ccc(C2=NCCN2)cc1	2.95	117 µM	–
CCCN(CCC)C1CCc2c(ccc3cc[nH]c23)C1 (configuration not stated)	–	–	inactive
O=C1OCCN(CCO)C12CCCC2	> 759	> 759 µM	–
CN(CC#N)C(=O)Cc1ccc([N+](=O)[O-])cc1	> 200	> 200 µM	–
O=C1NC(c2cccs2)N2C(=O)NC(c3cccs3)N12 (configuration not stated)	> 200	145 µM	–
COc1ccc(NC(=S)N=Nc2c(O)[nH]c3ccccc23)cc1	> 200	–	–
COC[C@@H](N=Cc1ccc(OC)cc1)C(C)C	> 200	> 200 µM	–
CCOC(=O)NN(C(=O)OCC)C(=C(c1ccccc1)N1CCOCC1)N(NC(=O)OCC)C(=O)OCC	> 200	> 200 µM	–
COc1cc2c(cc1OC)CN1CCc3ccccc3CC1C2 (configuration not stated)	> 200	14.8 µM	–
C=C1CCC[C@@H]2[C@@](C)(Cc3cc(O)ccc3O)C(C)CC[C@]12C (some centres not stated)	> 60.3	0.708 µM	–
Cc1cnc2c(Nc3ccc(Cl)cc3)cc(N)nc2n1	> 120	4.47 µM	–
Cc1ccc(NC(=O)/C(Cc2cc(=O)oc3cc(O)ccc23)=N\NC(C)(C)C)cc1C	> 17	> 17 µM	–
CCOC(=O)c1[nH]c2ccccc2c1C(=O)C[C@H](NC(=O)C(F)(F)F)C(=O)OC	> 200	> 200 µM	–
O=[N+]([O-])c1ccc(S(=O)(=O)N/N=C/C=C/c2ccccc2)cc1	> 151	> 151 µM	–
COC(=O)c1ccc(N2CCOS(=O)OCC2)cc1OC(=O)c1ccccc1	> 200	33.1 µM	–
OC1OCC(COc2cc(Cl)c(Cl)cc2Cl)OC1O (configuration not stated)	> 30.2	> 30.2 µM	–
Clc1ccc(CCn2cncn2)cc1	> 537	525 µM	–
CC(=O)[C@H]1CC[C@H]2[C@@H]3CCC4=CC(=O)CC[C@]4(C)[C@H]3CC[C@]12C	> 200	85.1 µM and 91.2 µM	–

SMILES	EC50 [µM]	IC50	outcome
CC(C)(C)NC(=S)N/N=C/c1ccccn1	> 0.2	0.0288 µM	–
O=C1CCC(=O)N1Sc1ccccc1	–	–	inactive
Cc1cccc(/C=N/NC(=S)NC2CCCCC2)n1	> 200	10 µM	–
c1cc(C[N+]23CN4CN(CN(C4)C2)C3)cs1	–	–	inactive
O=c1oc2c/c(=C\c3ccc([N+](=O)[O-])cc3)c(=O)c3cccc1c3-2	> 200	30.9 µM	–
NC(CSS(=O)(=O)O)=NCC1CCCCC1	> 200	58.9 µM	–
CS(=O)(=O)c1ccc(NNc2cc(=O)[nH]c(=O)[nH]2)cc1	> 200	70.8 µM	–
Cc1nc(-c2nc(C)c(C(=O)/C=C/c3ccc([N+](=O)[O-])cc3)s2)sc1C(=O)/C=C/c1ccc([N+](=O)[O-])cc1	> 47.9	> 47.9 µM	–
CC(C)(C)OC(=O)NC(Cc1ccccc1)NC(=O)NC(=O)OCc1ccccc1 (configuration not stated)	> 200	112 µM	–
CN1CC=C(c2c(N)nc(N)[nH]c2=O)CC1	> 200	> 200 µM	–
CCOC(=O)c1ccc2c(=O)[nH]nc(CO)c2c1	> 200	117 µM	–
C1CCCCC2(CCCCCCCCC3(CCC1)OCCO3)OCCO2	> 200	> 200 µM	–
CCOC(=O)C(/C=N\C(=S)Nc1ccc(Cl)c(Cl)c1)=C(/O)c1ccccc1	> 200	24 µM	–
C=C1C=CC2(Br)OC3CC(C)(Cl)C(Br)CC13C2(C)C (configuration not stated)	–	–	inactive
CCCC(C(=O)Nc1cccc2[nH]cnc12)C(=O)OCC (configuration not stated)	> 200	158 µM	–
CC1=C(c2ccccc2)CON(c2ccccc2)C1	> 53.7	> 53.7 µM	–
COC(=O)c1cc(C#N)[nH]c1-c1cccs1	> 200	40.7 µM	–
CCCCCCNC(=O)/C(=C\c1ccc(Cl)cc1Cl)NC(=O)c1ccccc1	> 200	> 200 µM	–
CCCCCCCCCC=C(c1cc(Cl)c(OC)c(C(=O)OC)c1)c1cc(Cl)c(OC)c(C(=O)OC)c1	> 23.4	> 23.4 µM	–
C/C=C(\CCC1NCCc2c1[nH]c1ccccc21)[Si](C)(C)C (configuration not stated)	–	–	inactive
CCOC(=O)C#CC(=O)OCC	> 200	15.1 µM	–
